Source: ChEMBL document CHEMBL1649439, “Prevalence of aac(6')-Ib-cr encoding a ciprofloxacin-modifying enzyme among Enterobacteriaceae blood isolates in Korea” (2009)
In brackets after ≈: the same amount, converted by molar mass.

Experiments:
Format in all cases: functional
Escherichia coli [1] = assay: Antimicrobial activity against Escherichia coli isolate 17 expressing aac(6')-Ib-cr gene
Klebsiella pneumoniae [2] = assay: Antimicrobial activity against Klebsiella pneumoniae isolate 132 expressing aac(6')-Ib-cr gene
Klebsiella pneumoniae [3] = assay: Antimicrobial activity against Klebsiella pneumoniae isolate 132 transconjugant expressing aac(6')-Ib-cr gene
Klebsiella pneumoniae [4] = assay: Antimicrobial activity against Klebsiella pneumoniae isolate 135 expressing aac(6')-Ib-cr gene
Klebsiella pneumoniae [5] = assay: Antimicrobial activity against Klebsiella pneumoniae isolate 135 transconjugant expressing aac(6')-Ib-cr gene
Klebsiella pneumoniae [6] = assay: Antimicrobial activity against Klebsiella pneumoniae isolate 202 expressing aac(6')-Ib-cr gene
Klebsiella pneumoniae [7] = assay: Antimicrobial activity against Klebsiella pneumoniae isolate 202 transconjugant expressing aac(6')-Ib-cr gene
Enterobacter cloacae [8] = assay: Antimicrobial activity against Enterobacter cloacae isolate 37 expressing aac(6')-Ib-cr gene
Enterobacter cloacae [9] = assay: Antimicrobial activity against Enterobacter cloacae isolate 37 transconjugant expressing aac(6')-Ib-cr gene
Enterobacter cloacae [10] = assay: Antimicrobial activity against Enterobacter cloacae isolate 101 expressing aac(6')-Ib-cr gene
Enterobacter cloacae [11] = assay: Antimicrobial activity against Enterobacter cloacae isolate 101 transconjugant expressing aac(6')-Ib-cr gene
Enterobacter cloacae [12] = assay: Antimicrobial activity against Enterobacter cloacae isolate 153 expressing aac(6')-Ib-cr gene
Enterobacter cloacae [13] = assay: Antimicrobial activity against Enterobacter cloacae isolate 153 transconjugant expressing aac(6')-Ib-cr gene
Escherichia coli [14] = assay: Antimicrobial activity against Escherichia coli isolate 17 transconjugant expressing aac(6')-Ib-cr gene
Escherichia coli [15] = assay: Antimicrobial activity against Escherichia coli isolate 48 expressing aac(6')-Ib-cr gene
Escherichia coli [16] = assay: Antimicrobial activity against Escherichia coli isolate 48 transconjugant expressing aac(6')-Ib-cr gene
Escherichia coli [17] = assay: Antimicrobial activity against azide-resistant Escherichia coli J53
Escherichia coli [18] = assay: Ratio of MIC for Escherichia coli isolate 17 transconjugant to MIC for azide-resistant Escherichia coli […]
Escherichia coli [19] = assay: Ratio of MIC for Escherichia coli isolate 48 transconjugant to MIC for azide-resistant Escherichia coli […]

Molecule	MIC (Escherichia coli [1]) [µg/mL]	MIC (Klebsiella pneumoniae [2]) [µg/mL]	MIC (Klebsiella pneumoniae [3]) [µg/mL]	MIC (Klebsiella pneumoniae [4]) [µg/mL]	MIC (Klebsiella pneumoniae [5]) [µg/mL]	MIC (Klebsiella pneumoniae [6]) [µg/mL]	MIC (Klebsiella pneumoniae [7]) [µg/mL]	MIC (Enterobacter cloacae [8]) [µg/mL]	MIC (Enterobacter cloacae [9]) [µg/mL]	MIC (Enterobacter cloacae [10]) [µg/mL]	MIC (Enterobacter cloacae [11]) [µg/mL]	MIC (Enterobacter cloacae [12]) [µg/mL]	MIC (Enterobacter cloacae [13]) [µg/mL]	MIC (Escherichia coli [14]) [µg/mL]	MIC (Escherichia coli [15]) [µg/mL]	MIC (Escherichia coli [16]) [µg/mL]	MIC (Escherichia coli [17]) [µg/mL]	fold change (FC) (Escherichia coli [18])	fold change (FC) (Escherichia coli [19])
COc1c(N2C[C@@H]3CCCN[C@@H]3C2)c(F)cc2c(=O)c(C(=O)O)cn(C3CC3)c12 [MOXIFLOXACIN]	> 16	0.125 (≈ 0.311 µM)	0.06 (≈ 0.149 µM)	> 16	1 (≈ 2.49 µM)	16 (≈ 39.9 µM)	0.06 (≈ 0.149 µM)	–	–	–	–	–	–	–	–	–	–	–	–
CCn1cc(C(=O)O)c(=O)c2ccc(C)nc21 [NALIDIXIC ACID]	> 256	8 (≈ 34.4 µM)	8 (≈ 34.4 µM)	> 256	32 (≈ 138 µM)	> 256	8 (≈ 34.4 µM)	> 256	8 (≈ 34.4 µM)	> 256	8 (≈ 34.4 µM)	> 256	8 (≈ 34.4 µM)	8 (≈ 34.4 µM)	> 256	8 (≈ 34.4 µM)	8 (≈ 34.4 µM)	–	–
NC[C@H]1O[C@H](O[C@H]2[C@H](O)[C@@H](O[C@H]3O[C@H](CO)[C@@H](O)[C@H](N)[C@H]3O)[C@H](N)C[C@@H]2N)[C@H](N)C[C@@H]1O [TOBRAMYCIN]	> 16	> 16	16 (≈ 34.2 µM)	> 16	> 16	> 16	> 16	> 16	> 16	> 16	2 (≈ 4.28 µM)	> 16	> 16	16 (≈ 34.2 µM)	16 (≈ 34.2 µM)	8 (≈ 17.1 µM)	0.25 (≈ 0.535 µM)	–	–
CCn1cc(C(=O)O)c(=O)c2cc(F)c(N3CCNCC3)cc21 [NORFLOXACIN]	> 16	0.5 (≈ 1.57 µM)	0.125 (≈ 0.391 µM)	> 16	8 (≈ 25.1 µM)	> 16	0.125 (≈ 0.391 µM)	> 16	0.25 (≈ 0.783 µM)	> 16	0.25 (≈ 0.783 µM)	> 16	0.25 (≈ 0.783 µM)	0.25 (≈ 0.783 µM)	> 16	0.25 (≈ 0.783 µM)	0.06 (≈ 0.188 µM)	2	2
CO/N=C(\C(=O)N[C@@H]1C(=O)N2C(C(=O)O)=C(COC(C)=O)CS[C@H]12)c1csc(N)n1 [CEFOTAXIME]	256 (≈ 562 µM)	> 256	> 256	256 (≈ 562 µM)	256 (≈ 562 µM)	> 256	16 (≈ 35.1 µM)	128 (≈ 281 µM)	64 (≈ 141 µM)	256 (≈ 562 µM)	32 (≈ 70.3 µM)	256 (≈ 562 µM)	32 (≈ 70.3 µM)	256 (≈ 562 µM)	> 256	> 256	0.06 (≈ 0.132 µM)	–	–
O=C(O)c1cn(C2CC2)c2cc(N3CCNCC3)c(F)cc2c1=O [CIPROFLOXACIN]	> 16	0.125 (≈ 0.377 µM)	0.03 (≈ 0.0905 µM)	> 16	1 (≈ 3.02 µM)	> 16	0.03 (≈ 0.0905 µM)	–	–	–	–	–	–	–	> 16	–	–	–	–
CC(C)(O/N=C(\C(=O)N[C@@H]1C(=O)N2C(C(=O)[O-])=C(C[n+]3ccccc3)CS[C@H]12)c1csc(N)n1)C(=O)O [CEFTAZIDIME]	32 (≈ 58.5 µM)	32 (≈ 58.5 µM)	16 (≈ 29.3 µM)	> 32	> 32	> 32	1 (≈ 1.83 µM)	8 (≈ 14.6 µM)	2 (≈ 3.66 µM)	> 32	2 (≈ 3.66 µM)	> 32	1 (≈ 1.83 µM)	16 (≈ 29.3 µM)	> 32	> 32	0.25 (≈ 0.457 µM)	–	–
GENTAMICIN	> 32	> 32	32	> 32	> 32	> 32	> 32	> 32	> 32	> 32	0.25	> 32	> 32	32	0.25	0.25	0.25	–	–
